Experimental data reported in patent publication US10888550B2, “Pyrazole derivatives as MALT1 inhibitors” (Janssen Pharmaceutica NV, priority 2018, dated 2021).

Tests used:
[1] = biological target: full-length MALT1 protein (Strep-MALT1(1-824)-His) (Homo sapiens (Human), UniProt Q9UDY8); experiment: MALT1 Biochemical Protease Assay; details: read-out: MALT1_Biochemical activity (Ac-LRSR-amc) IC50; 10 nM FL MALT1, 200 μM Ac-LRSR-AMC, 50 min pre-incubation, 4 h at RT
Excerpt: From this an ICso value (inhibitory concentration causing 50% inhibition) can be obtained.

[2] = test system: IL10 secretion, OCI-LY3 cells; experiment: Human IL10 Mesoscale assay (OCI-LY3); type: cell-based; details: 24 h incubation
[3] = test system: IL6 secretion, OCI-LY3 cells; experiment: Human IL6 Mesoscale assay (OCI-LY3); type: cell-based; details: 24 h incubation

Chain of full-length MALT1 protein (Strep-MALT1(1-824)-His) (Q9UDY8 whole entry): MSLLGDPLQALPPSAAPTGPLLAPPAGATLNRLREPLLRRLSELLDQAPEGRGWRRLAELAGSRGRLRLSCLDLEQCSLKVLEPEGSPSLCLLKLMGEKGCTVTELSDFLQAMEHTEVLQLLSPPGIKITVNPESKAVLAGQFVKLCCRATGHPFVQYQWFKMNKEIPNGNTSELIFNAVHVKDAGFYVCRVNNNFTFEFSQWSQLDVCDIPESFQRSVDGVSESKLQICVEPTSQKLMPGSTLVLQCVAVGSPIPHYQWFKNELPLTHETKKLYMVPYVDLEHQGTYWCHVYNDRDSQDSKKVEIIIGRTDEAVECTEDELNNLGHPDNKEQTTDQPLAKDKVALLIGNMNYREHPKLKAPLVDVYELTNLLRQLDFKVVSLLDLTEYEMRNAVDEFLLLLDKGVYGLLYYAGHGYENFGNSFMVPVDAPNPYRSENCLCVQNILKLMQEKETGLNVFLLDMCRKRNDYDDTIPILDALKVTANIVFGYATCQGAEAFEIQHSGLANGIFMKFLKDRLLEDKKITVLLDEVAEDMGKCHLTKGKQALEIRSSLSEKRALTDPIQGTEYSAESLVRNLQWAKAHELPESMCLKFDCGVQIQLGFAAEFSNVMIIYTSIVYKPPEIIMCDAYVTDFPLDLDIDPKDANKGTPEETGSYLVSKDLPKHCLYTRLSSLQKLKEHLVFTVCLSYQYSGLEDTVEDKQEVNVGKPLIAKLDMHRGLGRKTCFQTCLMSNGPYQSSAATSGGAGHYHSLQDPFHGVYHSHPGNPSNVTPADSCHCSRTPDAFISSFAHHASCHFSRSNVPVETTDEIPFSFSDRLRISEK

Compound	IC50 [1] [nM]	IC50 [2] [nM]	IC50 [3] [nM]
CO[C@@H](C)c1ncc(NC(=O)c2cnn(-c3ccc(F)c4nccn34)c2C(F)(F)F)cc1Cl (single isomer, unassigned) [Cpd 17, (*S)—N-(5-chloro-6-(1-methoxyethyl)pyridin-3-yl)-1-(8-fluoroimidazo[1,2-a]pyridin-5-yl)-5-(trifluoromethyl)-1H-pyrazole-4-carboxamide]	2340	–	–
O=C(Nc1cnc([C@H]2CCCO2)c(Cl)c1)c1cnn(-c2ccc(Cl)c3nccn23)c1C(F)(F)F (single isomer, unassigned) [Cpd 18, (*R)—N-(5-chloro-6-(tetrahydrofuran-2-yl)pyridin-3-yl)-1-(8-chloroimidazo[1,2-a]pyridin-5-yl)-5-(trifluoromethyl)-1H-pyrazole-4-carboxamide]	2190	–	–
CO[C@H](C)c1ncc(NC(=O)c2cnn(-c3ccc(F)c4nccn34)c2C(F)(F)F)cc1Cl (single isomer, unassigned) [Cpd 19, (*R)—N-(5-chloro-6-(1-methoxyethyl)pyridin-3-yl)-1-(8-fluoroimidazo[1,2-a]pyridin-5-yl)-5-(trifluoromethyl)-1H-pyrazole-4-carboxamide]	2820	–	–
O=C(Nc1cnc([C@@H]2CCCO2)c(Cl)c1)c1cnn(-c2ccc(Cl)c3nccn23)c1C(F)(F)F (single isomer, unassigned) [Cpd 20, (*S)—N-(5-chloro-6-(tetrahydrofuran-2-yl)pyridin-3-yl)-1-(8-chloroimidazo[1,2-a]pyridin-5-yl)-5-(trifluoromethyl)-1H-pyrazole-4-carboxamide]	355	–	–
O=C(Nc1cnc([C@H]2CCCO2)c(Cl)c1)c1cnn(-c2ccc(Cl)n3nccc23)c1C(F)(F)F (single isomer, unassigned) [Cpd 22, (*R)—N-(5-chloro-6-(tetrahydrofuran-2-yl)pyridin-3-yl)-1-(7-chloropyrazolo[1,5-a]pyridin-4-yl)-5-(trifluoromethyl)-1H-pyrazole-4-carboxamide]	977	–	–
CO[C@@H](C)c1ncc(NC(=O)c2cnn(-c3ccc(C#N)n4nccc34)c2C(F)(F)F)cc1Cl (single isomer, unassigned) [Cpd 25, (*S)—N-(5-chloro-6-(1-methoxyethyl)pyridin-3-yl)-1-(7-cyanopyrazolo[1,5-a]pyridin-4-yl)-5-(trifluoromethyl)-1H-pyrazole-4-carboxamide]	457	–	–
CO[C@H](C)c1ncc(NC(=O)c2cnn(-c3ccc(C#N)n4nccc34)c2C(F)(F)F)cc1Cl (single isomer, unassigned) [Cpd 26, (*R)—N-(5-chloro-6-(1-methoxyethyl)pyridin-3-yl)-1-(7-cyanopyrazolo[1,5-a]pyridin-4-yl)-5-(trifluoromethyl)-1H-pyrazole-4-carboxamide]	562	–	–
CO[C@@H](C)c1ncc(NC(=O)c2cnn(-c3ccc(Cl)n4nccc34)c2C(F)(F)F)cc1Cl (single isomer, unassigned) [Cpd 27, (*S)—N-(5-chloro-6-(1-methoxyethyl)pyridin-3-yl)-1-(7-chloropyrazolo[1,5-a]pyridin-4-yl)-5-(trifluoromethyl)-1H-pyrazole-4-carboxamide]	1020	–	–
CO[C@H](C)c1ncc(NC(=O)c2cnn(-c3ccc(Cl)n4nccc34)c2C(F)(F)F)cc1Cl (single isomer, unassigned) [Cpd 28, (*R)—N-(5-chloro-6-(1-methoxyethyl)pyridin-3-yl)-1-(7-chloropyrazolo[1,5-a]pyridin-4-yl)-5-(trifluoromethyl)-1H-pyrazole-4-carboxamide]	1320	–	–
O=C(Nc1cnc(-n2cccn2)c(Cl)c1)c1cnn(-c2ccc(F)c3nccn23)c1C(F)(F)F [Cpd 3, N-(5-chloro-6-(1H-pyrazol-1-yl)pyridin-3-yl)-1-(8-fluoroimidazo[1,2-a]pyridin-5-yl)-5-(trifluoromethyl)-1H-pyrazole-4-carboxamide]	251	114	151
CS(=O)(=O)c1ncc(NC(=O)c2cnn(-c3ccc(F)c4nccn34)c2C(F)(F)F)cc1C(F)(F)F [Cpd 5, 1-(8-fluoroimidazo[1,2-a]pyridin-5-yl)-N-(6-(methylsulfonyl)-5-(trifluoromethyl)pyridin-3-yl)-5-(trifluoromethyl)-1H-pyrazole-4-carboxamide]	372	371	281
CS(=O)(=O)c1c(C(=O)Nc2cnc(-n3nccn3)c(Cl)c2)cnn1-c1ccc(F)c2nccn12 [Cpd 8, N-(5-chloro-6-(2H-1,2,3-triazol-2-yl)pyridin-3-yl)-1-(8-fluoroimidazo[1,2-a]pyridin-5-yl)-5-(methylsulfonyl)-1H-pyrazole-4-carboxamide]	457	–	–
Cc1cc(NC(=O)c2cnn(-c3ccc(F)c4nccn34)c2C(F)(F)F)cnc1N=S(C)(C)=O [Cpd 29, N-(6-((dimethyl(oxo)-λ^6-sulfanylidene)amino)-5-methylpyridin-3-yl)-1-(8-fluoroimidazo[1,2-a]pyridin-5-yl)-5-(trifluoromethyl)-1H-pyrazole-4-carboxamide]	6000	–	–
CS(C)(=O)=Nc1ncc(NC(=O)c2cnn(-c3ccc(F)c4nccn34)c2C(F)(F)F)cc1C(F)(F)F [Cpd 30, N-(6-((dimethyl(oxo)-λ^6-sulfanylidene)amino)-5-(trifluoromethyl)pyridin-3-yl)-1-(8-fluoroimidazo[1,2-a]pyridin-5-yl)-5-(trifluoromethyl)-1H-pyrazole-4-carboxamide]	830	–	–
CS(=N)(=O)c1ncc(NC(=O)c2cnn(-c3ccc(F)c4nccn34)c2C(F)(F)F)cc1C(F)(F)F (stereo not shown) [Cpd 31, 1-(8-fluoroimidazo[1,2-a]pyridin-5-yl)-N-(6-(S-methylsulfonimidoyl)-5-(trifluoromethyl)pyridin-3-yl)-5-(trifluoromethyl)-1H-pyrazole-4-carboxamide]	3160	–	–
CS(C)(=O)=Nc1ncc(NC(=O)c2cnn(-c3ccc(F)c4nccn34)c2C(F)(F)F)cc1F [Cpd 32, N-(6-((dimethyl(oxo)-λ^6-sulfanylidene)amino)-5-fluoropyridin-3-yl)-1-(8-fluoroimidazo[1,2-a]pyridin-5-yl)-5-(trifluoromethyl)-1H-pyrazole-4-carboxamide]	8130	–	–
CS(C)(=O)=Nc1ncc(NC(=O)c2cnn(-c3ccc(F)c4nccn34)c2C(F)(F)F)cc1Cl [Cpd 33, N-(5-chloro-6-((dimethyl(oxo)-λ^6-sulfanylidene)amino)pyridin-3-yl)-1-(8-fluoroimidazo[1,2-a]pyridin-5-yl)-5-(trifluoromethyl)-1H-pyrazole-4-carboxamide]	980	–	–

Continued by falling IC50 [1], values first:

IC50 [1] [nM]	IC50 [2] [nM]	IC50 [3] [nM]	Compound
251	–	–	N#Cc1ccc(-n2ncc(C(=O)Nc3cnc([C@H]4CCCO4)c(Cl)c3)c2C(F)(F)F)c2ccnn12 (single isomer, unassigned) [Cpd 24, (*R)—N-(5-chloro-6-(tetrahydrofuran-2-yl)pyridin-3-yl)-1-(7-cyanopyrazolo[1,5-a]pyridin-4-yl)-5-(trifluoromethyl)-1H-pyrazole-4-carboxamide]
120	65	219	Cc1ccc(-n2ncc(C(=O)Nc3cnc(-n4nccn4)c(Cl)c3)c2C(F)(F)F)n2ccnc12 [Cpd 7, N-(5-chloro-6-(2H-1,2,3-triazol-2-yl)pyridin-3-yl)-1-(8-methylimidazo[1,2-a]pyridin-5-yl)-5-(trifluoromethyl)-1H-pyrazole-4-carboxamide]
87	200	245	O=C(Nc1cnc([C@@H]2CCCO2)c(Cl)c1)c1cnn(-c2ccc(Cl)n3nccc23)c1C(F)(F)F (single isomer, unassigned) [Cpd 21, (*S)—N-(5-chloro-6-(tetrahydrofuran-2-yl)pyridin-3-yl)-1-(7-chloropyrazolo[1,5-a]pyridin-4-yl)-5-(trifluoromethyl)-1H-pyrazole-4-carboxamide]
50	31	47	O=C(Nc1cnc(-n2nccn2)c(C(F)(F)F)c1)c1cnn(-c2ccc(F)c3nccn23)c1C(F)(F)F [Cpd 4, N-(6-(2H-1,2,3-triazol-2-yl)-5-(trifluoromethyl)pyridin-3-yl)-1-(8-fluoroimidazo[1,2-a]pyridin-5-yl)-5-(trifluoromethyl)-1H-pyrazole-4-carboxamide]
49	87	91	NC(=O)c1ccc(-n2ncc(C(=O)Nc3cnc(-n4nccn4)c(Cl)c3)c2C(F)(F)F)n2ccnc12 [Cpd 1, 5-(4-((5-chloro-6-(2H-1,2,3-triazol-2-yl)pyridin-3-yl)carbamoyl)-5-(trifluoromethyl)-1H-pyrazol-1-yl)imidazo[1,2-a]pyridine-8-carboxamide]
38	47	83	N#Cc1ccc(-n2ncc(C(=O)Nc3cnc(-n4nccn4)c(Cl)c3)c2C(F)(F)F)n2ccnc12 [Cpd 2, N-(5-chloro-6-(2H-1,2,3-triazol-2-yl)pyridin-3-yl)-1-(8-cyanoimidazo[1,2-a]pyridin-5-yl)-5-(trifluoromethyl)-1H-pyrazole-4-carboxamide]
36	115	200	N#Cc1ccc(-n2ncc(C(=O)Nc3cnc([C@@H]4CCCO4)c(Cl)c3)c2C(F)(F)F)c2ccnn12 (single isomer, unassigned) [Cpd 23, (*S)—N-(5-chloro-6-(tetrahydrofuran-2-yl)pyridin-3-yl)-1-(7-cyanopyrazolo[1,5-a]pyridin-4-yl)-5-(trifluoromethyl)-1H-pyrazole-4-carboxamide]
30	105	257	O=C(Nc1cnc(-c2ncco2)c(Cl)c1)c1cnn(-c2ccc(F)c3nccn23)c1C(F)(F)F [Cpd 6, N-(5-chloro-6-(oxazol-2-yl)pyridin-3-yl)-1-(8-fluoroimidazo[1,2-a]pyridin-5-yl)-5-(trifluoromethyl)-1H-pyrazole-4-carboxamide]
